Measurements: patent publication US7816338B2, “Compositions and methods for inhibiting car gene expression by RNA interference” (Sumitomo Chemical Company, Limited, priority 2007, dated 2010)

How the values were obtained:
liver [1] = test: Liver wet weight in rats (Example 10); assay type: in vivo, rat; conditions: group treated with PB and control siRNA (Cont)
Method: (§1) The wet weight of the liver in the rats to which siRNA (CAR) or control siRNA (Cont) was administered by the methods described in (1) to (3) of Example 2 is measured by the method described in (5) of Example 2. As a result, the liver weight is increased in the group treated with PB and control siRNA (Cont) as compared to the case of the untreated animal group.

liver [2] = test: Centrilobular cell hypertrophy, histopathological examination of the liver (Example 11); assay type: in vivo, rat; conditions: rats; group treated with PB and control siRNA (Cont)
Method: as §1, with “Histopathological examination” for “The wet weight”, “performed” for “measured”, “centrilobular cell hypertrophy” for “the liver weight”

CYP2B1 mRNA = test: CYP2B1 gene expression in PB-treated primary hepatocyte cultured cells (Example 5 (3))
[3] = tested on: CYP2B dependent pentoxyresorufin O-depentylation activity; test: CYP2B dependent PROD (pentoxyresorufin O-depentylation activity) in hepatocytes (Example 6); assay type: cell-based, rat; conditions: PB and control siRNA (Cont) treatment; 72 hours after siRNA
Method: Then, the culture medium is replaced with 2 mL of William's culture medium containing 7 μM of 7-pentoxyresorufin and 7 μM of dicumarol. The culture medium is incubated at 37° C. for 4 hours, and then the culture medium is recovered. The cells are mixed with 1000 U of β-glucronidase (bovine liver-derived) and 50 mM of sodium acetate solution (pH 5), which is left at 37° C. for 3 hours. Measurement of pentoxyresorufin O-depentylation activity is performed by measuring the amount of fluorescence per unit solution. Further, the measurement is carried out at an excitation wavelength of 530 nm and a fluorescence wavelength of 585 nm using a fluorophotometer (F-4010, manufactured by Hitachi). In evaluation of the results, the total amount of protein in the cells in which the substrate was treated is measured by the Protein assay kit (Bio-Rad) and the production amount of resorufin per unit protein (amount of pentoxyresorufin O-depentylation) is calculated on the basis of the calibration curve of resorufin. […] As a result, pentoxyresorufin O-depentylation activity is enhanced by PB and control siRNA (Cont) treatment as compared to the case of the untreated cells.

CCC1(c2ccccc2)C(=O)NC(=O)NC1=O [PB, Phenobarbital]
liver weight as compared to the untreated animal group (liver [1]): increased
centrilobular cell hypertrophy as compared to the untreated animal group (liver [2]): increased
CYP2B1 mRNA expression increase compared to cells untreated with PB (CYP2B1 mRNA; cells treated with PB (50 nM) and control siRNA(Cont)): about fivefold
CYP2B1 expression increase by PB treatment compared to cells untreated with compound (CYP2B1 mRNA; cells which inhibited CAR (siRNA(CAR)), PB 50 nM): about twofold
pentoxyresorufin O-depentylation activity as compared to the untreated cells [3]: enhanced
